In brackets after ≈: the same amount, converted by molar mass. Several values for one entry are separate records, joined by “and”; a condition that tells them apart may be missing. Equal entries are not always repeated. Where two headings read alike, the source gives them in different places.
Experiments:
[1] = system: SGC-7901 cells; assay: MTT cell viability assay, SGC-7901; format: cell-based; conditions: Homo sapiens
Protocol: (§1) The viability of cancer cells was evaluated by MTT assay. Briefly, cells were inoculated in 96-well culture plates at the density of 1×10^4/well with complete medium containing 10% fetal calf serum in a final volume of 0.2 mL. Cells were incubated at 37°C for at least 24 hours to allow optimal attachment. When the cells reached 60% confluence, they were treated with Cisplatin, HCPT and emodin rhamnopyranosides derivatives in various concentrations, and incubated in a humidity-controlled 5%CO2 incubator at 37°C for 72 hours. Medium were exchanged once every 24 hours. Cell control group and blank group were set up in the same manner, with each group having six parallel wells. Cell survival was assessed by directly adding 22 μL of 5mg/mL MTT to 0.2 mL medium. After three hours, the formazan precipitate was dissolved in 200μL isopropanol per well, and completely mixed under room temperature. Afterwards, the optical density of each well was detected at 570 nm wavelength by iMark microplate reader (Bio-rad,USA). This experiment was repeated at least three times.

[2] = system: OVCAR-3 cells; assay: MTT cell viability assay, OVCAR-3; format: cell-based, Human; conditions: for IC50: OVCAR-3
Protocol: as §1

[3] = system: HepG2 cells; assay: Cell cycle analysis (PI staining); format: cell-based, Human; conditions: 48h; for Percentage of cell cycle distribution, G2/M: control 9.68±3.46%; for Percentage of cell cycle distribution, G0/G1: control 67.48±3.94%
Protocol: HepG2 cells in logarithmic growth phase were inoculated in 10cm culture plates at density of 5×10^5 cells and incubated overnight and allowed to attach. After being exposed to EM-d-Rha at specific concentrations for 48h, cells were harvested and washed with cold PBS twice. Then the collected cells were fixed with 1mL PBS and 3mL cold 100% ethanol at 4°C overnight. After that, the cells were again harvested by centrifugation at 300×g for 10 min. The cells were washed with cold PBS and re-suspended in 450 μL PBS, and then treated with 50μL ribonuclease (RNase,10mg/mL) at 37°C for 15min. 500μL of propidium iodide (PI, 50μg/ml) was added to the samples. After the cells were incubated for 30 min at 4°C in the dark, the cell cycle distribution was measured using an BD FACSCalibur Flow cytometer (BD Biosciences, USA), and 10,000cells were counted for each sample. The percentage of cells in different phases of the cell cycle was analyzed by flow Jo (BD Biosciences, USA). The experiment was repeated three times.

[4] = system: Caspase-3 gene expression of HepG2 cells; assay: RT-qPCR gene expression, Caspase-3; format: cell-based, Human; conditions: 48 hours, control 1.022±0.258
Protocol: HepG2 cells were inoculated in 6-well culture plates at a density of 3×10^5 cells/well, and allowed to attach at 37°C for 24 hours. Then cells were treated with specific concentrations of EM-d-Rha and incubated in a humidified incubator supplied with 5% CO2 at 37°C for 48 hours. Medium were changed once every 24 hours. Afterwards, mRNA was extracted from every group using E.Z.N.A.^TM Total RNA Kit II according to the manufacturer’s instructions. The extracted mRNA was dissolved in 20 μL ddH2O (Qiagen) containing diethyl pyrocarbonate (DEPC). The concentration of mRNA was quantified with a NanoDrop ND-100 device (Thermo Fisher Scientific). cDNA was synthesized using 3μg of the extracted mRNA from each sample with PCR system (BIO-RAD,USA). The cDNA synthesis reaction was prepared according to the manufacturer’s instructions by mixing 3μg mRNA, 4.0μL 5× MMLV buffer, 3 μL oligodT18, 0.5μL 10 mM dNTP solution, 0.8μL RNase inhibitor, 3.7μL MMLV Rtase, and 6.0μL DEPC ddH2O in PCR tubes. The reaction condition was 5min at 70°C, 60 min at 42°C and 10min at 4°C. The products were used for subsequent RT-qPCR analysis. The level of mRNA expression was measured by RT-qPCR using a CFX96^TM C1000 Real-Time PCR System (BIO-RAD, USA).The primers were designed using idt.dna software system (http //www.idtdna.com). The specific primers were: Cyto C: 5′-[…]-3′ (forward), 5′- […] -3′ (reverse); Caspase 3: 5′- CCTACAGCCCATTTC TCCATAC-3′ (forward), 5′-[…]-′ (reverse); β-actin: 5′-[…]-3′ (forward), 5′-[…]-3′ (reverse). The product sizes of Cyto C, Caspase 3 and β-actin were 91bp, 125bp and 107bp, respectively. […]
Master Mix (Promega), 0.3μL of each primer (10μM), and 1.0 μL cDNA template. […] Each sample was analyzed in quadruplicate and mean was used for further analysis. The mRNA expression levels of each sample were quantified by measuring the threshold cycle (CT) values of genes. The relative values of the target gene expression were calculated according to CT values of the target genes and the reference gene (β-actin) by applying Livak and Schmittgen method. […]

[5] = system: MDCK cells; assay: MTT cell viability assay, MDCK; format: cell-based, Canine; conditions: Canis lupus familiaris, 72 hours
Protocol: as §1

[6] = system: HeLa cells; assay: MTT cell viability assay, HeLa; format: cell-based, Human
Protocol: as §1

- IC50 ([1]; MTT at 72h, n=3, mean±S.E.M, read-out: IC50 for EM-d-Rha, SGC-7901): 1990 ± 120 nM
- IC50 ([2]; Homo sapiens, MTT at 72h, n=3, mean±S.E.M, read-out: IC50 for EM-d-Rha, OVCAR-3): 2260 ± 920 nM
- IC50 ([2]; Homo sapiens, MTT, 72 hours, read-out: IC50 values, OVCAR-3): 0.61 µg/mL
- Decrease of IC50 compared to the IC50 of emodin, OVCAR-3 ([2]; from Table 1): 42.3 fold
- IC50 ([6]; Homo sapiens, HeLa, MTT at 72h, n=3, mean±S.E.M, read-out: IC50 for EM-d-Rha, HeLa): 1510 ± 310 nM
- IC50 ([6]; Homo sapiens, HeLa, MTT, 72 hours, read-out: IC50 values, HeLa): 1.15 µg/mL
- Decrease of IC50 compared to the IC50 of emodin, HeLa ([6]; from Table 1): 10.56 fold
SMILES: CC(=O)O[C@@H]1[C@@H](O[C@@H]2O[C@@H](C)[C@H](O)[C@@H](OC(C)=O)[C@H]2OC(C)=O)[C@H](C)O[C@@H](Oc2cc(O)c3c(c2)C(=O)c2cc(C)cc(O)c2C3=O)[C@@H]1OC(C)=O [S-8, 3-(2”,3”-Di-O-acetyl-α-L-rhamnopyranosyl-(1→4)-2’,3’-di-O-acetyl-α-L-rhamnopyranosyl)-emodin]
- inhibition at 0.1 µM ([1]; SCG-7901, 0.1μM, MTT 72h, read-out: The inhibition rate of EM-d-Rha): 20.1 ± 0.18%
- inhibition at 0.5 µM ([1]; SCG-7901, 0.5μM, MTT 72h, read-out: The inhibition rate of EM-d-Rha): 40.99 ± 0.02%
- inhibition at 2.5 µM ([1]; SCG-7901, 2.5μM, MTT 72h, read-out: The inhibition rate of EM-d-Rha): 42.63 ± 0.02%
- inhibition at 12.5 µM ([1]; SCG-7901, 12.5μM, MTT 72h, read-out: The inhibition rate of EM-d-Rha): 95.01 ± 0.01%
- inhibition at 62.5 µM ([1]; SCG-7901, 62.5μM, MTT 72h, read-out: The inhibition rate of EM-d-Rha): 94.33 ± 0.05%
- inhibition at 0.1 µM ([2]; Homo sapiens, OVCAR-3, 0.1μM, MTT 72h, read-out: The inhibition rate of EM-d-Rha): 1.4 ± 0.21%
- inhibition at 0.5 µM ([2]; Homo sapiens, OVCAR-3, 0.5μM, MTT 72h, read-out: The inhibition rate of EM-d-Rha): 2.95 ± 1.12%
- inhibition at 2.5 µM ([2]; Homo sapiens, OVCAR-3, 2.5μM, MTT 72h, read-out: The inhibition rate of EM-d-Rha): 66 ± 1.27%
- inhibition at 12.5 µM ([2]; Homo sapiens, OVCAR-3, 12.5μM, MTT 72h, read-out: The inhibition rate of EM-d-Rha): 83.6 ± 1.15%
- inhibition at 62.5 µM ([2]; Homo sapiens, OVCAR-3, 62.5μM, MTT 72h, read-out: The inhibition rate of EM-d-Rha): 90.64 ± 0.74%
- Percentage of cell cycle distribution, G2/M ([3]; HepG2, 2.5μM): 7.01±1.73%
- Percentage of cell cycle distribution, S ([3]; HepG2, 2.5μM, control 23.19±2.18%, listed as EM-d-Rha): 28.59% and 28.59±3.75%
- Percentage of cell cycle distribution, G0/G1 ([3]; HepG2, 2.5μM): 61.37±2.16%
- Percentage of cell cycle distribution, G2/M ([3]; HepG2, 5.0μM): 10.31±3.08%
- Percentage of cell cycle distribution, G0/G1 ([3]; HepG2, 5.0μM): 51.03±8.84%
- Percentage of cell cycle distribution, G2/M ([3]; HepG2, 10.0μM): 7.96±2.07%
- Percentage of cell cycle distribution, G0/G1 ([3]; HepG2, 10.0μM): 52.35±9.37%
- Caspase-3 mRNA expression level relative to controls ([4]; HepG2, 0.70μM): 0.949±0.259 fold
- Caspase-3 mRNA expression level relative to controls ([4]; HepG2, 1.40μM): 0.900±0.190 fold
- Caspase-3 mRNA expression level relative to controls ([4]; HepG2, 5.60μM): 4.413±3.730 fold
- IC50 [5]: 18.5 µg/mL (≈ 25.3 µM)
- inhibition at 0.1 µM ([6]; Homo sapiens, HeLa, 0.1μM, MTT 72h, read-out: The inhibition rate of EM-d-Rha): 14.8 ± 5.61%
- inhibition at 0.5 µM ([6]; Homo sapiens, HeLa, 0.5μM, MTT 72h, read-out: The inhibition rate of EM-d-Rha): 37.6 ± 2.81%
- inhibition at 2.5 µM ([6]; Homo sapiens, HeLa, 2.5μM, MTT 72h, read-out: The inhibition rate of EM-d-Rha): 49.2 ± 3.78%
- inhibition at 12.5 µM ([6]; Homo sapiens, HeLa, 12.5μM, MTT 72h, read-out: The inhibition rate of EM-d-Rha): 69.1 ± 3.36%
- inhibition at 62.5 µM ([6]; Homo sapiens, HeLa, 62.5μM, MTT 72h, read-out: The inhibition rate of EM-d-Rha): 89.74 ± 0.63%

From article PMC4684281, “Antitumor Effects and Mechanism of Novel Emodin Rhamnoside Derivatives against Human Cancer Cells In Vitro” (PLoS ONE, 2015)
